Experimental findings from US9216173B2, “2-Pyridyl carboxamide-containing spleen tyrosine kinase (SYK) inhibitors” (Merck Sharp & Dohme Corp., priority 2011, dated 2015) are described below.

Where only a bound is given, the exact number is not on record here.

For the first experiment, the target named is T1, recombinant human GST-SYK (Homo sapiens, UniProt P43405).
T1 construct: purchased Carna Biosciences 08-176
The experiment in a line: Homogeneous Time-Resolved Fluorescence (HTRF) assay for the recombinant human Syk enzyme. The conditions noted are these: GST-hSYK 5 pM, ATP 25 μM, 10-dose titration 10 μM to 0.508 nM; read-out: IC50. Type of experiment: biochemical. The method in brief: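 GST-hSYK fusion phosphorylates a peptide for 45 min at room temperature. Quenched with EDTA buffer containing 2 nM Eu-anti-phosphotyrosine antibody and 70 nM SA-APC. HTRF signal read after 30 min.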
(In general: In TR-FRET formats the signal depends on donor and acceptor labels being close together.)
With `Cc1cc(C)nc(Nc2cc(N[C@@H]3C[C@H]3N)cnc2C(N)=O)c1` (relative stereo) [Example 2.13, rel-5-{[(1R,2R)-2-aminocyclopropyl]amino}-3-[(4,6-dimethylpyridin-2-yl)amino]pyridine-2-carboxamide], the IC50 is 770 nM.

For `CCC(CN)Nc1cnc(C(N)=O)c(Nc2ccn(C)n2)c1` (centres unmarked) [Example 1.95, 5-{[1-(aminomethyl)propyl]amino}-3-[(1-methyl-1H-pyrazol-3-yl)amino]pyridine-2-carboxamide], the IC50 amounted to 120 nM.

Still in this experiment, the particulars now being: GST-hSYK 5 pM, ATP 25 μM, 10-dose titration 10 μM to 0.508 nM; read-out: rhSYK Activity (IC50 rating).
With `CCC(CN)Nc1cnc(C(N)=O)c(Nc2cccc(-n3nccn3)n2)c1` (centres unmarked) [Example 1.85, 5-{[1-(aminomethyl)propyl]amino}-3-{[6-(2H-1,2,3-triazol-2-yl)pyridin-2-yl]amino}pyridine-2-carboxanmle], the IC50 was under 10 nM.

As to `NC(=O)c1ncc(N[C@@H]2CCCC[C@@H]2N)cc1Nc1cccc(-c2ccc3c(c2)CCO3)n1` [Example 1.15, 5-{[(1R,2S)-2-aminocyclohexyl]amino}-3-{[6-(2,3-dihydro-1-benzofuran-5-yl)pyridin-2-yl]amino}pyridine-2-carboxamide], the IC50 was under 10 nM.

For `COc1ncccc1-c1ccc(Nc2cc(N[C@@H]3CCCC[C@@H]3N)cnc2C(N)=O)nc1C` [Example 3.26, 5-{[(1R,2S)-2-aminocyclohexyl]amino}-3-[(2′-methoxy-2-methyl-3,3′-bipyridin-6-yl)amino]pyridine-2-carboxamide], the IC50 is under 10 nM.

As to `CSCC(N)CNc1cnc(C(N)=O)c(Nc2cc(C)cc(C)n2)c1` (centres unmarked) [Example 2.8, 5-{[2-amino-3-(methylsulfanyl)propyl]amino}-3-[(4,6-dimethylpyridin-2-yl)amino]pyridine-2-carboxamide], the IC50 was under 10 nM.

With `Cc1cc(-c2ccnn2C)cc(Nc2cc(N[C@@H]3CCCC[C@@H]3N)cnc2C(N)=O)n1` [Example 4.4, 5-{[(1R,2S)-2-aminocyclohexyl]amino}-3-{[6-methyl-4-(1-methyl-1H-pyrazol-5-yl)pyridin-2-yl]amino}pyridine-2-carboxamide], the IC50 is under 10 nM.

On to `Cc1cc(C)nc(Nc2cc(N[C@@H]3C[C@H]3N)cnc2C(N)=O)c1` (relative stereo) [Example 2.13, rel-5-{[(1R,2R)-2-aminocyclopropyl]amino}-3-[(4,6-dimethylpyridin-2-yl)amino]pyridine-2-carboxamide], for which the IC50 was 100 to 1000 nM.

Turning to `Cc1cc(-n2nccn2)cc(Nc2cc(N[C@@H]3CCCC[C@@H]3N)cnc2C(N)=O)n1` [Example 1.76, 5-{[(1R,2S)-2-aminocyclohexyl]amino}-3-{[6-methyl-4-(2H-1,2,3-triazol-2-yl)pyridin-2-yl]amino}pyridine-2-carboxamide], the IC50 was under 10 nM.

For the compound `Cc1nc(Nc2cc(N[C@@H]3CCCC[C@@H]3N)cnc2C(N)=O)ccc1-c1ccc(-c2ncco2)cc1` [Example 3.30, 5-{[(1R,2S)-2-aminocyclohexyl]amino}-3-({6-methyl-5-[4-(1,3-oxazol-2-yl)phenyl]pyridin-2-yl}amino)pyridine-2-carboxamide], the IC50 was under 10 nM.

In the case of `CCc1cccc(Nc2cc(NC(CC)CN)cnc2C(N)=O)n1` (centres unmarked) [Example 1.97, 5-{[1-(aminomethyl)propyl]amino}-3-[(6-ethylpyridin-2-yl)amino]pyridine-2-carboxamide], the IC50 was under 10 nM.

For `NC(=O)c1ncc(N[C@@H]2CCCC[C@@H]2N)cc1Nc1ccc2nccn2n1` [Example 1.17, 5-{[(1R,2S)-2-aminocyclohexyl]amino}-3-(imidazo[1,2-b]pyridazin-6-ylamino)pyridine-2-carboxamide], the IC50 is under 10 nM.

Turning to `Cc1nc(Nc2cc(N[C@@H]3CCCC[C@@H]3N)cnc2C(N)=O)ccc1-c1cccc([N+](=O)[O-])c1` [Example 3.3, 5-{[(1R,2S)-2-aminocyclohexyl]amino}-3-{[6-methyl-5-(3-nitrophenyl)pyridin-2-yl]amino}pyridine-2-carboxamide], the IC50 was under 10 nM.

Turning to `Cc1cc(C)nc(Nc2cc(NCC(N)C(=O)N(C)C)cnc2C(N)=O)c1` (centres unmarked) [Example 2.9, 5-{[2-amino-3-(dimethylamino)-3-oxopropyl]amino}-3-[(4,6-dimethylpyridin-2-yl)amino]pyridine-2-carboxamide], the IC50 lay within 100 to 1000 nM.

As for `Cc1cc(Nc2cc(N[C@@H]3CCCC[C@@H]3N)cnc2C(N)=O)nc(-n2nccn2)c1` [Example 1.102, 5-{[(1R,2S)-2-aminocyclohexyl]amino}-3-{[4-methyl-6-(2H-1,2,3-triazol-2-yl)pyridin-2-yl]amino}pyridine-2-carboxamide], the IC50 is under 10 nM.

On to `Cc1cc(OC(C)C)cc(Nc2cc(N[C@@H]3CCCC[C@@H]3N)cnc2C(N)=O)n1` [Example 5.2, 5-{[(1R,2S)-2-aminocyclohexyl]amino}-3-{[6-methyl-4-(1-methylethoxy)pyridin-2-yl]amino}pyridine-2-carboxamide], for which the IC50 was under 10 nM.

Take `Cc1cc(Nc2cc(N[C@@H]3CCCC[C@@H]3N)cnc2C(N)=O)nc(-c2ccnn2C)c1` [Example 1.112, 5-{[(1R,2S)-2-aminocyclohexyl]amino}-3-{[4-methyl-6-(1-methyl-1H-pyrazol-5-yl)pyridin-2-yl]amino}pyridine-2-carboxamide]: the IC50 is under 10 nM.

`Cc1cncc(Nc2cc(N[C@@H]3CCCC[C@@H]3N)cnc2C(N)=O)n1` [Example 1.121, 5-{[(1R,2S)-2-aminocyclohexyl]amino}-3-[(6-methylpyrazin-2-yl)amino]pyridine-2-carboxamide]: the IC50 is under 10 nM.

Regarding `NC(=O)c1ncc(N[C@@H]2CCCC[C@@H]2N)cc1Nc1cccc(-c2ccncc2)n1` [Example 1.27, 5-{[(1R,2S)-2-aminocyclohexyl]amino}-3-(2,4′-bipyridin-6-ylamino)pyridine-2-carboxamide], the IC50 is under 10 nM.

As to `CCC(CN)Nc1cnc(C(N)=O)c(Nc2ccn(C)n2)c1` (centres unmarked) [Example 1.95, 5-{[1-(aminomethyl)propyl]amino}-3-[(1-methyl-1H-pyrazol-3-yl)amino]pyridine-2-carboxamide], the IC50 was 100 to 1000 nM.

Consider `Cc1cc(C)nc(Nc2cc(N[C@H]3CS(=O)(=O)C[C@@H]3N)cnc2C(N)=O)c1` (relative stereo) [Example 2.6, rel-5-{[(3R,4R)-4-amino-1,1-dioxidotetrahydrothiophen-3-yl]amino}-3-[(4,6-dimethylpyridin-2-yl)amino]pyridine-2-carboxamide], for which the IC50 was in the range of 100 to 1000 nM.

Consider `Cc1nc(Nc2cc(N[C@@H]3CCCC[C@@H]3N)cnc2C(N)=O)ccc1-c1ccc2c(c1)CNC2=O` [Example 3.17, 5-{[(1R,2S)-2-aminocyclohexyl]amino}-3-{[6-methyl-5-(1-oxo-2,3-dihydro-1H-isoindol-5-yl)pyridin-2-yl]amino}pyridine-2-carboxamide], for which the half-inhibitory concentration (IC50) is under 10 nM.

For `Cc1cc(C)nc(Nc2cc(NCCCN)cnc2C(N)=O)c1` [Example 14, 5-[(3-aminopropyl)amino]-3-[(4,6-dimethylpyridin-2-yl)amino]pyridine-2-carboxamide], the IC50 is 10 to 100 nM.

On to `Cc1cc(-c2cnn(C)c2)cc(Nc2cc(N[C@@H]3CCCC[C@@H]3N)cnc2C(N)=O)n1` [Example 4.3, 5-{[(1R,2S)-2-aminocyclohexyl]amino}-3-{[6-methyl-4-(1-methyl-1H-pyrazol-4-yl)pyridin-2-yl]amino}pyridine-2-carboxamide], for which the IC50 was under 10 nM.

`NC(=O)c1ncc(N[C@@H]2CCCC[C@@H]2N)cc1Nc1ccn(Cc2ccccc2)n1` [Example 1.50, 5-{[(1R,2S)-2-aminocyclohexyl]amino}-3-[(1-benzyl-1H-pyrazol-3-yl)amino]pyridine-2-carboxamide]: the IC50 was in the range of 10 to 100 nM.

In the case of `CC(C)c1cccc(Nc2cc(N[C@@H]3CCCC[C@@H]3N)cnc2C(N)=O)n1` [Example 1.54, 5-{[(1R,2S)-2-aminocyclohexyl]amino}-3-{[6-(1-methylethyl)pyridin-2-yl]amino}pyridine-2-carboxamide], the IC50 was under 10 nM.

In general, IC50 refers to the concentration needed to halve the response being measured.
